Read-outs that look alike come from different tables or passages of the source.
What was measured:
HT-29 tumor cells = assay: Cell growth inhibition assay (CellTiter-Glo), HT-29; conditions: Homo sapiens, HT-29, 72 h, read-out: Activity in HT-29 Tumor Cells;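 further: ATP content read by luminescence as proxy for cell number, growth inhibition versus DMSO vehicle wells, 0.2% DMSO final, nine serial threefold compound dilutions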
SK-MEL-3 tumor cells = assay: Cell growth inhibition assay (CellTiter-Glo), SK-MEL-3; conditions: Homo sapiens, SK-MEL3, 72 h, read-out: Activity in SK-MEL-3 Tumor Cells;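 further: human melanoma cells grown with compound for 3 days in 0.2% DMSO, total ATP read by luminescence as proxy for cell number, growth inhibition versus DMSO-treated wells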
Description: (§1) Cell Growth Inhibition Assays Human colon tumor cells (Colo205) were cultured in RPMI (Mediatech 50-020-PB) containing 10% FBS and 1% penicillin-streptomycin. […] Human melanoma cancer cells (A375-F11S) were cultured in RPMI (Mediatech 50-020-PB) containing 10% FBS, 1% sodium pyruvate, and 1% penicillin-streptomycin. Human colon cancer cells (HT-29) were cultured in high glucose DMEM (Mediatech 50-013-PB) containing 10% FBS and 1% penicillin-streptomycin. Human melanoma cancer cells (SK-MEL-3) were cultured in McCoy's 5A (50-025-PB) containing 15% FBS, and 1% penicillin-streptomycin. All cell lines were maintained at 37° C. in a humidified 5% CO2, 95% air incubator.
(§2) The next day, compounds were diluted as follows: For 96-well assays, 13.5 μl of compound in DMSO were diluted using nine (9) serial 1:3 dilutions of 4.5 μl in 9 μl of DMSO. Medium (270 μl/well of RPMI with 10% FBS and 1% penicillin-streptomycin) was added to the plates. Aliquots (7 μl) were added to cells in the final assay giving a final DMSO concentration of 0.2%. For 384-well assays, 15 μl of compound in DMSO were diluted using nine (9) serial 1:3 dilutions of 5 μl in 10 μl of DMSO, followed by a further dilution of 5 μl of compound with 95 μl of medium, of which 2 μl are added to cells in the final assay giving a final DMSO concentration of 0.2%. Cells were incubated at 37° C., 5% CO2 for 3 days.
(§3) Total ATP was measured (as a surrogate estimate of cell number) using CellTiter-Glo® (Promega G7571) reagent. Briefly, plates were removed from the incubator and allowed to equilibrate to room temperature for 30 minutes. CellTiter-Glo® (25 μl or 55 μl for 384-well or 96-well assays, respectively) reagent was added to each well and plates were shaken on an orbital plate shaker for 2 minutes. Plates were incubated without shaking for a further 30 minutes and read on an LJL Analyst GT reader in luminometer mode with an integration time of 0.5 seconds per well. Percent inhibition of cell growth was calculated relative to DMSO vehicle-treated control wells.

SK-MEL-28 tumor cells = assay: Cell growth inhibition assay (CellTiter-Glo), SK-MEL-28; conditions: Homo sapiens, SK-MEL-28, 72 h, read-out: Activity in SK-MEL-28 Tumor Cells;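 further: luminescent total ATP as a proxy for cell number, threefold serial dilutions at 0.2% DMSO, percent growth inhibition versus DMSO vehicle control wells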
B-Raf = B-Raf (Homo sapiens, UniProt P15056); assay: B-Raf Accelerated MEK ATPase assay (BRAMA); format: biochemical
In short: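 B-Raf activity read as intrinsic MEK ATPase: catalytic activated RAF with non-phosphorylated MEK drives ADP formation, coupled through pyruvate kinase and lactate dehydrogenase to NADH oxidation, independent of ERK phosphorylation.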

Colo205 tumor cells = assay: Cell growth inhibition assay (CellTiter-Glo), Colo205; conditions: Homo sapiens, COLO 205, 72 h, read-out: Activity in Colo205 Tumor Cells;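 further: growth measured via total ATP luminescence (CellTiter-Glo) as a proxy for cell number, inhibition expressed against DMSO-treated control wells, 3-day exposure at 0.2% final DMSO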
Description: as §1, §2, §3

A375P tumor cells = assay: Cell growth inhibition assay (CellTiter-Glo), A375P; conditions: Homo sapiens, 72 h, read-out: Activity in A375P Tumor Cells;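 further: total ATP luminescence used as proxy for cell number, serial threefold compound dilutions at 0.2% DMSO, growth inhibition expressed versus DMSO vehicle-treated wells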
[1] = BRAMA enzyme assay, class by pIC50, read-out: B-Raf Activity

Structure (SMILES)	IC50 (HT-29 tumor cells) [nM]	IC50 (SK-MEL-3 tumor cells) [nM]	IC50 (SK-MEL-28 tumor cells) [nM]	IC50 (B-Raf; [1]) [nM]	IC50 (Colo205 tumor cells) [nM]	IC50 (A375P tumor cells) [nM]	IC50 (B-Raf) [nM]
COc1cccc(-c2nc(C(C)C)sc2-c2ccnc(Nc3ccc(OC4CCN(C(C)C)CC4)c(F)c3)n2)c1 [Example 59, N-(3-Fluoro-4-{[1-(1-methylethyl)-4-piperidinyl]oxy}phenyl)-4-{2-(1-methylethyl)-4-[3-(methyloxy)phenyl]-1,3-thiazol-5-yl}-2-pyrimidinamine]	< 500	< 500	500 to 5000	< 100	< 500	500 to 5000	
COc1cccc(-c2nc(CO)sc2-c2ccnc(Nc3ccc(OCCN4CCCC4)c(F)c3)n2)c1 [Example 60, {5-{2-[(3-Fluoro-4-{[2-(1-pyrrolidinyl)ethyl]oxy}phenyl)amino]-4-pyrimidinyl}-4-[3-(methyloxy)phenyl]-1,3-thiazol-2-yl}methanol]	< 500	< 500	500 to 5000	< 100	< 500	500 to 5000	
CCc1nc(-c2cc(CO)cc(OC)c2)c(-c2ccnc(Nc3ccc(N4CCN(C(C)=O)CC4)nc3)n2)s1 [Example 65, [3-[5-(2-{[6-(4-Acetyl-1-piperazinyl)-3-pyridinyl]amino}-4-pyrimidinyl)-2-ethyl-1,3-thiazol-4-yl]-5-(methyloxy)phenyl]methanol]	500 to 5000	500 to 5000	500 to 5000	< 100	500 to 5000	500 to 5000	
CCc1nc(-c2cc(C)cc(CO)c2)c(-c2ccnc(Nc3ccc(N4CCN(S(C)(=O)=O)CC4)nc3)n2)s1 [Example 66, (3-{2-Ethyl-5-[2-({6-[4-(methylsulfonyl)piperazin-1-yl]pyridin-3-yl}amino)pyrimidin-4-yl]-1,3-thiazol-4-yl}-5-methylphenyl)methanol]	< 500	< 500	500 to 5000	< 100	< 500	< 500	
CCc1nc(-c2cccc(CO)c2)c(-c2ccnc(Nc3ccc(N4CCOCC4)c(F)c3)n2)s1 [Example 67, {3-[2-Ethyl-5-(2-{[3-fluoro-4-(4-morpholinyl)phenyl]amino}-4-pyrimidinyl)-1,3-thiazol-4-yl]phenyl}methanol]	< 500	< 500	500 to 5000	< 100	500 to 5000	< 500	
CCNc1nc(-c2cc(C)cc(OC)c2)c(-c2ccnc(Nc3ccc(N4CC[C@@H](F)C4)nc3)n2)o1 [Example 81]	500 to 5000	500 to 5000	500 to 5000	< 100	500 to 5000	500 to 5000	
CCNc1nc(-c2cc(OC)cc(OC)c2)c(-c2ccnc(Nc3cc(F)c(OC4CCN(CCS(C)(=O)=O)CC4)c(F)c3)n2)o1 [Example 90]	< 500	< 500	< 500	< 100	< 500	500 to 5000	
CCNc1nc(-c2cc(OC)cc(OC)c2)c(-c2ccnc(Nc3ccc(OC4CCN(CCS(C)(=O)=O)CC4)c(Cl)c3)n2)o1 [Example 92]	500 to 5000	500 to 5000	500 to 5000	< 100	500 to 5000	500 to 5000	
CCNc1nc(-c2cc(OC)cc(OC)c2)c(-c2ccnc(Nc3cc(F)c(N4CCN(CCF)CC4)c(F)c3)n2)o1 [Example 94]	< 500	< 500	500 to 5000	< 100	< 500	500 to 5000	
CCNc1nc(-c2cc(OC)cc(OC)c2)c(-c2ccnc(Nc3ccc(OC4CCN(CCS(C)(=O)=O)CC4)c(OC)c3)n2)o1 [Example 95]	500 to 5000	500 to 5000	500 to 5000	< 100	500 to 5000	500 to 5000	
COc1cc(C)cc(-c2nc(C(C)C)oc2-c2ccnc(Nc3ccc(N4CCN(C(C)=O)CC4)nc3)n2)c1 [Example 98]	500 to 5000	< 500	500 to 5000	< 100	< 500	500 to 5000	
COc1cc(C)cc(-c2nc(C(C)C)oc2-c2ccnc(Nc3ccc(N4CCOCC4)nc3)n2)c1 [Example 99]	500 to 5000	500 to 5000	500 to 5000	< 100	500 to 5000	500 to 5000	
COc1cc(C)cc(-c2nc(C(C)C)oc2-c2ccnc(Nc3ccc(N4CCN(CCS(C)(=O)=O)CC4)c(F)c3)n2)c1 [Example 102]	< 500	< 500	500 to 5000	< 100	< 500	500 to 5000	
CCNc1nc(-c2cc(Cl)cc(OC)c2)c(-c2ccnc(Nc3ccc(N4CCN(CCF)CC4)c(F)c3)n2)o1 [Example 104]	< 500	500 to 5000	500 to 5000	< 100	< 500	500 to 5000	
CCNc1nc(-c2cc(OC)cc(OC)c2)c(-c2ccnc(Nc3ccc(N4CCN(CCF)CC4)nc3)n2)o1 [Example 112]	500 to 5000	500 to 5000	500 to 5000	< 100	< 500	500 to 5000	
CCNc1nc(-c2cc(OC)cc(OC)c2)c(-c2ccnc(Nc3ccc(N4CCN5CCCCC5C4)c(F)c3)n2)s1 (stereo not drawn) [Example 115]	< 500	< 500	500 to 5000	< 100	< 500	500 to 5000	
CCNc1nc(-c2cc(OC)cc(OC)c2)c(-c2ccnc(Nc3ccc(N4CCN(CCS(C)(=O)=O)CC4)c(F)c3)n2)o1 [Example 116]	500 to 5000	< 500	500 to 5000	< 100	< 500	500 to 5000	
CCNc1nc(-c2cc(OC)cc(OC)c2)c(-c2ccnc(Nc3ccc(N4CCN(CCOC)CC4)c(C(=O)O)c3)n2)o1 [Example 119]	500 to 5000	500 to 5000	500 to 5000	< 100	500 to 5000	500 to 5000	
CCNc1nc(-c2cc(OC)cc(OC)c2)c(-c2ccnc(Nc3ccc(N4CCOCC4)nc3)n2)o1 [Example 120]	500 to 5000	500 to 5000	500 to 5000	< 100	< 500	500 to 5000	
CCNc1nc(-c2cc(C)cc(OC)c2)c(-c2ccnc(Nc3ccc(N4CCN(CCF)CC4)c(F)c3)n2)o1 [Example 128]	500 to 5000	500 to 5000	500 to 5000		< 500	500 to 5000	< 100

Further lines, with some results ahead:

IC50 (HT-29 tumor cells) [nM]	IC50 (SK-MEL-3 tumor cells) [nM]	IC50 (SK-MEL-28 tumor cells) [nM]	IC50 (B-Raf; [1]) [nM]	IC50 (Colo205 tumor cells) [nM]	IC50 (A375P tumor cells) [nM]	Structure (SMILES)	IC50 (B-Raf) [nM]
< 500	< 500	500 to 5000	< 100	500 to 5000	< 500	COc1cc(C)cc(-c2nc(C(C)C)sc2-c2ccnc(Nc3ccc(N4CCN(CCS(C)(=O)=O)CC4)c(F)c3)n2)c1 [Example 62, N-(3-Fluoro-4-{4-[2-(methylsulfonyl)ethyl]-1-piperazinyl}phenyl)-4-{2-(1-methylethyl)-4-[3-methyl-5-(methyloxy)phenyl]-1,3-thiazol-5-yl}-2-pyrimidinamine]	
500 to 5000	< 500	500 to 5000	< 100	500 to 5000	500 to 5000	CCNc1nc(-c2cc(OC)cc(OC)c2)c(-c2ccnc(Nc3ccc(OC4CCN(CCOC)CC4)c(F)c3)n2)o1 [Example 89]	
500 to 5000	500 to 5000	500 to 5000	< 100	500 to 5000	500 to 5000	CCNc1nc(-c2cc(OC)cc(OC)c2)c(-c2ccnc(Nc3ccc(OC4CCN(CCF)CC4)c(OC)c3)n2)o1 [Example 96]	
< 500	< 500	< 500	< 100	< 500	< 500	COc1cc(OC)cc(-c2nc(NC3CC3)sc2-c2ccnc(Nc3ccc(OCCN(C)C)c(Cl)c3)n2)c1 [Example 105]	
< 500	< 500	500 to 5000	< 100	< 500	< 500	CCNc1nc(-c2cc(OC)cc(OC)c2)c(-c2ccnc(Nc3ccc(OCCN(C)C)c(C)c3)n2)s1 [Example 106]	
500 to 5000	500 to 5000	500 to 5000	< 100	< 500	500 to 5000	CCNc1nc(-c2cc(OC)cc(OC)c2)c(-c2ccnc(Nc3ccc(N4CCN(CCO)CC4)nc3)n2)o1 [Example 108]	
500 to 5000	500 to 5000	500 to 5000	< 100	< 500	500 to 5000	CCNc1nc(-c2cc(OC)cc(OC)c2)c(-c2ccnc(Nc3ccc(N4CCN(CCF)CC4)c(F)c3)n2)o1 [Example 117]	
500 to 5000	500 to 5000	500 to 5000	< 100	500 to 5000	500 to 5000	CCNc1nc(-c2cc(C)cc(OC)c2)c(-c2ccnc(Nc3ccc(OC4CCN(CCS(C)(=O)=O)CC4)c(C)c3)n2)o1 [Example 125]	
< 500	< 500	< 500	< 100	< 500	500 to 5000	CCNc1nc(-c2cc(C)cc(OC)c2)c(-c2ccnc(Nc3ccc(N4CCN(CCS(C)(=O)=O)CC4)c(F)c3)n2)o1 [Example 127]	

Source: US20110190280A1, “Thiazole And Oxazole Kinase Inhibitors” (priority 2007, published 2011)
